Source: the C3SDB collision cross section collection
Structures can show the parent of a compound that is named as a salt.

details: [M+H-H2O]+; instrument: TW; calibrated with polyalanine and drug standards

SMILES | collision cross section (N2)
CCCCCC(=O)Cc1cc(O)cc(O)c1C(=O)Oc1cc(CC(=O)CCCCC)c(C(=O)O)c(OC)c1 [ARTHONIOIC ACID] | 231.7 Å²
C[C@@H](N)[C@@H](O)c1ccccc1 [1R,2S-PHENYLPROPYLAMINE] | 127.8 Å²

same assay, conditions: [M+H]+; instrument: TW; calibrated with polyalanine and drug standards

SMILES | collision cross section (N2)
CC(=O)Nc1ccccc1 [ACETANILIDE] | 125 Å²
O=C(O)CCC(=O)Nc1ccc(S(=O)(=O)Nc2nccs2)cc1 [SUCCINYLSULFATHIAZOLE] | 182.4 Å²
C#C[C@]1(O)CC[C@H]2[C@@H]3CCC4=CC(=O)CC[C@@H]4[C@H]3CC[C@@]21C [NORETHINDRONE] | 174.4 Å²
NC(=NCCCCCCN=C(N)/N=C(\N)Nc1ccc(Cl)cc1)/N=C(\N)Nc1ccc(Cl)cc1 [CHLORHEXIDINE] | 221.3 Å²
C=C1C[C@@H]2[C@H](CC[C@]3(C)C(=O)CC[C@@H]23)[C@@]2(C)C=CC(=O)C=C12 [EXEMESTANE] | 171.1 Å²
COc1ccc2c(=O)c(OC)c(-c3ccccc3)oc2c1 [3,7-DIMETHOXYFLAVONE] | 160.7 Å²
CC(C)CCC[C@@H](C)[C@H]1CC[C@H]2[C@@H]3CC=C4CC(=O)CC[C@]4(C)[C@H]3CC[C@]12C [CHOLEST-5-EN-3-ONE] | 211.4 Å²
CCCCC[C@H](CC(=O)NO)C(=O)N[C@H](C(=O)N1CCC[C@H]1CO)C(C)C [ACTINONIN] | 194.1 Å²
COc1ccc(-c2cc(=O)c3c(O)cc(OC)cc3o2)cc1 [APIGENIN DIMETHYL ETHER] | 163 Å²
C/C=C1\[C@H]2C=C(C)C[C@]1(N)c1ccc(=O)[nH]c1C2 [HUPERZINE A] | 157.7 Å²
Nc1ccc(S(=O)(=O)c2ccc(N)cc2)cc1 [DAPSONE] | 151.7 Å²
CC(C)CC1C(=O)N2CCCC2C2(O)OC(NC(=O)C3C=C4c5cccc6[nH]cc(c56)CC4N(C)C3)(C(C)C)C(=O)N12 (stereo not drawn) [alpha-ERGOCRYPTINE] | 236.1 Å²
O=C(CCc1ccc(O)cc1)c1c(O)cc(O)cc1O [PHLORETIN] | 160.7 Å²
O=C1C=C2C=C[C@@H]3C[C@@]2(O1)[C@H]1CCCCN31 [SECURININE] | 146.4 Å²
COC(=O)C[C@H]1C2(C)CC34OC5(C)O[C@@]6([C@H](OC(C)=O)C(OC(C)=O)[C@]7(C)C(/C(=C(/O)C(C)C)C(=O)O[C@H]7c7ccoc7)[C@@]6(O5)[C@H](OC(C)=O)[C@@]3(O)C2OC(=O)C(C)C)[C@]14C (stereo partly drawn) [BUSSEIN] | 258.7 Å²
CC(=O)OCC(=O)[C@@]1(O)CC[C@H]2[C@@H]3CCC4=CC(=O)CC[C@]4(C)[C@H]3[C@@H](O)C[C@@]21C [HYDROCORTISONE ACETATE] | 196.1 Å²
COc1cccc2c1C(=O)c1c(O)c3c(c(O)c1C2=O)C[C@@](O)(C(=O)CO)C[C@@H]3O[C@H]1C[C@H](N)[C@H](O)[C@H](C)O1 [DOXORUBICIN] | 227 Å²
CCOC(=O)c1ccc(N)cc1 [BENZOCAINE] | 145.9 Å²
CC[C@H]1OC(=O)[C@H](C)[C@@H](O[C@H]2C[C@@](C)(OC)[C@@H](O)[C@H](C)O2)[C@H](C)[C@@H](O[C@@H]2O[C@H](C)C[C@H](N(C)C)[C@H]2O)[C@](C)(OC)C[C@@H](C)C(=O)[C@H](C)[C@@H](O)[C@]1(C)O [CLARITHROMYCIN] | 264.2 Å²
Cc1ncc([N+](=O)[O-])n1CCO [METRONIDAZOLE] | 130.4 Å²
CC(=O)O[C@]1(C(C)=O)CC[C@H]2[C@@H]3C=C(Cl)C4=CC(=O)CC[C@]4(C)[C@H]3CC[C@@]21C [CHLORMADINONE ACETATE] | 197 Å²
COc1ncnc(NS(=O)(=O)c2ccc(N)cc2)c1OC [SULFADOXINE] | 166.2 Å²
CCN(CC)CCOCCOC(=O)C(CC)(CC)c1ccccc1 [OXELAIDIN CITRATE] | 178.3 Å²
Cc1c(Cl)cccc1Nc1ccccc1C(=O)O [TOLFENAMIC ACID] | 155.6 Å²
C[C@@H]1CC[C@@]2(OC1)O[C@H]1C[C@H]3[C@@H]4CC[C@@H]5C[C@@H](O)CC[C@]5(C)[C@H]4CC[C@]3(C)[C@H]1[C@@H]2C [SMILAGENIN] | 207.7 Å²
O=C(O)[C@@H]1[C@H]2C[C@H]3c4[nH]c5ccccc5c4CCN3C[C@@H]2CC[C@@H]1O [YOHIMBIC ACID] | 181.7 Å²
O=C(O)CCCN1C(=O)c2cccc3cccc(c23)C1=O [4-NAPHTHALIMIDOBUTYRIC ACID] | 156.5 Å²

SMILES | collision cross section (N2)
COc1cc(OC)c2c(=O)c(-c3ccc4c(c3)OCO4)coc2c1 [DERRUSTONE] | 169.8 Å²
C[C@H]1[C@H](NC(=O)/C(=N\OC(C)(C)C(=O)O)c2csc(N)n2)C(=O)N1S(=O)(=O)O [AZTREONAM] | 197.4 Å²
CC(C)N=c1cc2n(-c3ccc(Cl)cc3)c3ccccc3nc-2cc1Nc1ccc(Cl)cc1 [CLOFAZIMINE] | 216.8 Å²
C=C1C(=O)O[C@@H]2C[C@@]3(C)CCC[C@H](C)C3=C[C@H]12 [HELENINE] | 149.5 Å²
COc1cc(/C=C/C(=O)N2CCC=CC2=O)cc(OC)c1OC [PIPLARTINE] | 176.1 Å²
COC1=CC(=O)C=C(OC)C1=O [2,6-DIMETHOXYQUINONE] | 129.5 Å²
CCc1oc2ccccc2c1C(=O)c1cc(Br)c(O)c(Br)c1 [BENZBROMARONE] | 176 Å²
CCN(Cc1ccncc1)C(=O)C(CO)c1ccccc1 (stereo not drawn) [TROPICAMIDE] | 169.5 Å²
C[N+]1([O-])C2CCC1CC(OC(=O)C(CO)c1ccccc1)C2 (stereo not drawn) [ATROPINE OXIDE] | 172.4 Å²
C=CCSCC1Nc2cc(Cl)c(S(N)(=O)=O)cc2S(=O)(=O)N1 (stereo not drawn) [ALTHIAZIDE] | 181.5 Å²
O=C(NC(Cc1cc(=O)[nH]c2ccccc12)C(=O)O)c1ccc(Cl)cc1 (stereo not drawn) [REBAMIPIDE] | 185 Å²
CC1=CC(=O)C2=C(C)CC[C@@H]3[C@H](OC(=O)[C@H]3C)[C@@H]12 [LEUCODIN] | 154.2 Å²
CC1=CCc2c(cc3oc(C)cc(=O)c3c2O)OC1 [PTAEROXYLIN] | 153.5 Å²
COc1ccccc1N1CCNCC1 [1-(2-METHOXYPHENYL)PIPERAZINE] | 140.5 Å²
C[C@@H]1O[C@@H](O[C@H]2[C@H](O[C@H]3CC[C@@]4(C)[C@@H](CC[C@]5(C)[C@@H]4CC=C4[C@@H]6CC(C)(C)CC[C@]6(C(=O)O[C@@H]6O[C@H](CO[C@@H]7O[C@H](CO)[C@@H](O[C@@H]8O[C@@H](C)[C@H](O)[C@@H](O)[C@H]8O)[C@H](O)[C@H]7O)[C@@H](O)[C@H](O)[C@H]6O)CC[C@]45C)[C@]3(C)CO)OC[C@H](O)[C@@H]2O)[C@H](O)[C@H](O)[C@H]1O [HEDERACOSIDE C] | 349.1 Å²
CCCN(CCC)CCc1cccc2c1CC(=O)N2 [ROPINIROLE] | 162.5 Å²
S=c1[nH]c2ccccc2s1 [2-MERCAPTOBENZOTHIAZOLE] | 126.4 Å²
COC(=O)C[C@H]1C(C)(C)C(=O)[C@@H]2CC3=C(CC[C@]4(C)C3=CC(=O)O[C@H]4c3ccoc3)[C@@]1(C)C2=O [CARAPIN-8(9)-ENE] | 206.3 Å²
NCC1(CC(=O)O)CCCCC1 [GABAPENTIN] | 138.6 Å²
C#C[C@]1(OC(C)=O)CC[C@H]2[C@@H]3CCC4=CC(=O)CC[C@@H]4[C@H]3CC[C@@]21C [NORETHINDRONE ACETATE] | 186.3 Å²
O=C1c2cccc(O)c2C(=O)c2c(O)cccc21 [DANTHRON] | 148.3 Å²
CC(=O)O[C@@H]1C[C@H]2C(C)(C)C(=O)C=C[C@]2(C)[C@H]2CC[C@@]3(C)[C@H](c4ccoc4)OC(=O)[C@H]4O[C@]43[C@@]21C [GEDUNIN] | 205.7 Å²
CCCN(CCC)C(=O)C(CCC(=O)O)NC(=O)c1ccccc1 (stereo not drawn) [PROGLUMIDE] | 181.1 Å²
Nc1nc(/C(=C/CC(=O)O)C(=O)N[C@@H]2C(=O)N3C(C(=O)O)=CCS[C@H]23)cs1 [CEFTIBUTEN] | 191.4 Å²
Cc1cc(=O)[nH]c(=S)[nH]1 [METHYLTHIOURACIL] | 123.7 Å²
CC(=O)[C@H]1CC[C@H]2[C@@H]3CCC4=CC(=O)CC[C@]4(C)[C@H]3C(OC(=O)CCC(=O)O)C[C@]12C (stereo partly drawn) [11alpha-HYDROXYPROGESTERONE HEMISUCCINATE] | 201.8 Å²
N#C[C@H](O[C@@H]1O[C@H](CO[C@@H]2O[C@H](CO)[C@@H](O)[C@H](O)[C@H]2O)[C@@H](O)[C@H](O)[C@H]1O)c1ccccc1 [AMYGDALIN] | 200.6 Å²

same assay, conditions: [M+Na]+; instrument: TW; calibrated with polyalanine and drug standards

SMILES | collision cross section (N2)
COc1cc([C@@H]2c3cc4c(cc3[C@@H](O[C@@H]3O[C@@H]5CO[C@@H](c6cccs6)O[C@H]5[C@H](O)[C@H]3O)[C@H]3COC(=O)[C@H]23)OCO4)cc(OC)c1O [TENIPOSIDE] | 266.1 Å²
O=C(CCc1ccc(O)cc1)c1c(O)cc(O)cc1O[C@@H]1O[C@H](CO)[C@@H](O)[C@H](O)[C@H]1O [PHLORIDZIN] | 194.4 Å²
CCCCOC(=O)c1ccccc1C(=O)OCCCC [DIBUTYL PHTHALATE] | 180.7 Å²
OC[C@H]1O[C@@H](O[C@H]2[C@H](O)[C@@H](O)[C@@H](O)O[C@@H]2CO)[C@H](O)[C@@H](O)[C@@H]1O [CELLOBIOSE (D[+])] | 175.7 Å²
CC(=O)N[C@H]1[C@H]([C@H](O)[C@H](O)CO)O[C@](O)(C(=O)O)C[C@@H]1O [N-ACETYLNEURAMIC ACID] | 166.6 Å²
CC(=O)N[C@@H](Cc1c[nH]c2ccccc12)C(N)=O [ACETYLTRYPTOPHANAMIDE] | 159.3 Å²

same assay, conditions: [M]+; instrument: TW; calibrated with polyalanine and drug standards

SMILES | collision cross section (N2)
CCCCCCCCCCCCCCCC[N+](C)(C)Cc1ccccc1 [BENZALKONIUM CHLORIDE C16] | 214.8 Å²
